Test results reported in the supplement of paper PMC10307832.

Tests used:
Test in all cases: relative viability (nuclei count vs DMSO), 5 days (fraction); higher = more cells survive
[1] = compound: C=CCNC1=C2C[C@@H](C)C[C@H](OC)[C@H](O)[C@@H](C)/C=C(\C)[C@H](OC(N)=O)[C@@H](OC)/C=C\C=C(/C)C(=O)NC(=CC1=O)C2=O [17-AAG] + CC(C)C[C@H](NC(=O)[C@H](Cc1ccccc1)NC(=O)c1cnccn1)B(O)O [Bortezomib] (partner 0.002 µM)
How it was run: (§1)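 A single step with final 0.05% Triton X-100, 1% formaldehyde and 1 ug/ml Hoechst fixed the cells and stained nuclei 5 days after treatment. Lung cancer cell lines in 1536-well plates had been treated by pin tool the day after seeding with one drug alone or a fixed anchor-drug dose plus five library-drug doses (not always all listed) in √10 steps, and nuclei were counted on 4× images. Relative viability is the ratio of nuclei in treated wells to nuclei in vehicle wells, taken as the median of duplicate plates.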

[2] = compound: C=CCNC1=C2C[C@@H](C)C[C@H](OC)[C@H](O)[C@@H](C)/C=C(\C)[C@H](OC(N)=O)[C@@H](OC)/C=C\C=C(/C)C(=O)NC(=CC1=O)C2=O [17-AAG] + Cc1nc(NC(=O)N2CCC[C@H]2C(N)=O)sc1-c1ccnc(C(C)(C)C(F)(F)F)c1 [Alpelisib] (partner 2 µM)
How it was run: as §1

[3] = compound: C=CCNC1=C2C[C@@H](C)C[C@H](OC)[C@H](O)[C@@H](C)/C=C(\C)[C@H](OC(N)=O)[C@@H](OC)/C=C\C=C(/C)C(=O)NC(=CC1=O)C2=O [17-AAG] + Cc1nc(Nc2ncc(C(=O)Nc3c(C)cccc3Cl)s2)cc(N2CCN(CCO)CC2)n1 [Dasatinib] (partner 0.075 µM)
How it was run: as §1

[4] = compound: C=CCNC1=C2C[C@@H](C)C[C@H](OC)[C@H](O)[C@@H](C)/C=C(\C)[C@H](OC(N)=O)[C@@H](OC)/C=C\C=C(/C)C(=O)NC(=CC1=O)C2=O [17-AAG] + CC(=O)c1c(C)c2cnc(Nc3ccc(N4CCNCC4)cn3)nc2n(C2CCCC2)c1=O [Palbociclib] (partner 0.5 µM)
How it was run: as §1

Row | Cell Line | relative viability ([1]; first compound 0.00128 µM) | relative viability ([1]; first compound 0.004048 µM) | relative viability ([1]; first compound 0.0128 µM) | relative viability ([1]; first compound 0.04048 µM) | relative viability ([1]; first compound 0.128 µM) | relative viability ([2]; first compound 0.00128 µM) | relative viability ([2]; first compound 0.004048 µM) | relative viability ([2]; first compound 0.0128 µM) | relative viability ([2]; first compound 0.04048 µM) | relative viability ([2]; first compound 0.128 µM) | relative viability ([3]; first compound 0.00128 µM) | relative viability ([3]; first compound 0.004048 µM) | relative viability ([3]; first compound 0.0128 µM) | relative viability ([3]; first compound 0.04048 µM) | relative viability ([3]; first compound 0.128 µM) | relative viability ([4]; first compound 0.00128 µM) | relative viability ([4]; first compound 0.004048 µM) | relative viability ([4]; first compound 0.0128 µM) | relative viability ([4]; first compound 0.04048 µM) | relative viability ([4]; first compound 0.128 µM)
1 | NCI-H441 | 0.506 | 0.395 | 0.199 | 0.181 | 0.14 | 0.625 | 0.61 | 0.236 | 0.172 | 0.145 | 0.587 | 0.45 | 0.129 | 0.122 | 0.127 | 0.283 | 0.166 | 0.108 | 0.116 | 0.107
2 | HCC-366 | 0.949 | 0.785 | 0.0604 | 0.0267 | 0.0245 | 0.565 | 0.333 | 0.0236 | 0.0226 | 0.0154 | 0.726 | 0.654 | 0.0387 | 0.0326 | 0.0293 | 0.415 | 0.361 | 0.126 | 0.0306 | 0.031
3 | NCI-H1975 | 0.445 | 0.34 | 0.149 | 0.145 | 0.119 | 0.583 | 0.365 | 0.147 | 0.139 | 0.124 | 0.315 | 0.247 | 0.121 | 0.104 | 0.0938 | 0.547 | 0.526 | 0.22 | 0.106 | 0.104
4 | NCI-H1437 | 0.606 | 0.389 | 0.176 | 0.123 | 0.0811 | 0.959 | 0.929 | 0.88 | 0.107 | 0.122 | 0.39 | 0.447 | 0.226 | 0.143 | 0.0854 | 0.3 | 0.351 | 0.259 | 0.198 | 0.167
5 | NCI-H2009 | 0.974 | 0.995 | 0.917 | 0.815 | 0.142 | 1.13 | 1.19 | 1.13 | 0.853 | 0.366 | 0.313 | 0.298 | 0.304 | 0.229 | 0.0827 | 0.22 | 0.254 | 0.258 | 0.203 | 0.0584
6 | NCI-H1651 | 0.859 | 0.928 | 0.872 | 0.89 | 0.425 | 0.972 | 0.895 | 0.902 | 0.27 | 0.157 | 0.486 | 0.415 | 0.206 | 0.186 | 0.111 | 0.496 | 0.563 | 0.511 | 0.451 | 0.302
7 | LCLC-103H | 1.02 | 1.17 | 1.02 | 1.13 | 1.09 | 1.05 | 0.974 | 0.998 | 0.996 | 1.11 | 0.446 | 0.522 | 0.464 | 0.456 | 0.46 | 0.5 | 0.471 | 0.489 | 0.477 | 0.464
8 | NCI-H1666 | 0.78 | 0.687 | 0.244 | 0.228 | 0.171 | 0.949 | 0.713 | 0.299 | 0.216 | 0.214 | 0.783 | 0.718 | 0.309 | 0.35 | 0.295 | 0.618 | 0.672 | 0.609 | 0.519 | 0.526
9 | NCI-H1734 | 0.917 | 0.897 | 0.734 | 0.269 | 0.145 | 0.708 | 0.759 | 0.716 | 0.289 | 0.16 | 0.482 | 0.445 | 0.356 | 0.176 | 0.105 | 0.366 | 0.402 | 0.369 | 0.303 | 0.175
10 | EPLC-272H | 0.89 | 0.821 | 0.97 | 0.855 | 0.171 | 1.01 | 0.934 | 0.848 | 0.756 | 0.266 | 0.436 | 0.387 | 0.205 | 0.0643 | 0.0761 | 0.34 | 0.323 | 0.348 | 0.147 | 0.0684
11 | NCI-H2023 | 0.886 | 0.878 | 0.138 | 0.0901 | 0.0776 | 0.582 | 0.66 | 0.273 | 0.0878 | 0.0906 | 0.572 | 0.281 | 0.0632 | 0.0704 | 0.059 | 0.374 | 0.195 | 0.102 | 0.0665 | 0.0605
12 | BEN | 0.917 | 1.14 | 0.997 | 0.64 | 0.232 | 1.02 | 0.978 | 1.04 | 0.84 | 0.257 | 0.354 | 0.376 | 0.469 | 0.298 | 0.232 | 0.466 | 0.484 | 0.54 | 0.491 | 0.337
13 | COR-L 105 | 0.548 | 0.729 | 0.746 | 0.581 | 0.507 | 1.08 | 0.898 | 1.19 | 0.746 | 0.817 | 0.388 | 0.306 | 0.356 | 0.202 | 0.263 | 0.431 | 0.389 | 0.406 | 0.356 | 0.384
14 | ABC-1 | 0.356 | 0.348 | 0.355 | 0.287 | 0.246 | 1.05 | 1.19 | 0.691 | 0.976 | 0.919 | 0.607 | 0.666 | 0.633 | 0.514 | 0.392 | 0.701 | 0.805 | 0.772 | 0.79 | 0.602
15 | HCC-15 | 1.01 | 0.816 | 0.502 | 0.542 | 0.127 | 0.948 | 0.772 | 0.587 | 0.403 | 0.16 | 0.617 | 0.434 | 0.0928 | 0.0907 | 0.0837 | 0.693 | 0.687 | 0.429 | 0.31 | 0.149
